Where two headings read alike, the source gives them in different places. Where a SMILES comes first, the peptide text is derived from it.

Results on 13 molecules are retold here after PMC9355146, “Novel angiotensin-converting enzyme inhibitory peptides from tuna byproducts—milts: Preparation, characterization, molecular docking study, and antioxidant function on H2O2-damaged human umbilical vein endothelial cells” (Frontiers in Nutrition, 2022).

The subject of series [1] is H2O2-damaged HUVECs. Nature of the series: MDA level in H2O2-damaged HUVECs. Format: cell-based, human. The following applies: then H2O2 400 μM for 24 h, mean ± SD, n = 3. The protocol:
(§1) The cytoprotective assay was carried out using the described methods ([55], [56]). In short, HUVECs were cultured in a 96-well plate at a density of 1 × 10^4 cells/cm^2 for 24 h. Afterward, the supernatant was aspirated, and 20 μL of ACEi peptides (TP6, TP7, and TP10) with the final concentrations of 100 and 200 μM were added to the protection groups, respectively. […] GSH was used as the positive control.
(§2) The level of ROS was determined on the method described by Cai et al. ([55]) and expressed as % of blank control; the levels of MDA, SOD, and GSH-Px were measured using assay kits in accordance with the manufacturer' protocols and expressed as U/mg prot.

Series [2] has as its system H2O2-damaged HUVECs. The series is classed as cell-based, human. The protocol:
The cytotoxic assay was carried out as per the previous method ([54]). […] Then, 20 μL MTT solution (5 mg/mL) was put in and incubated for 4 h. In the end, DMSO was joined in each well plate, and the absorbance (A) at 490 nm was determined. Cell viability(%)= (Asample/Acontrol) × 100. The cytoprotective assay was carried out using the described methods ([55], [56]). In short, HUVECs were cultured in a 96-well plate at a density of 1 × 10^4 cells/cm^2 for 24 h. […] GSH was used as the positive control.

Series [3] concerns HUVECs. Nature of the series: Endothelin-1 (ET-1) secretion in HUVECs. The series is classed as cell-based, human. Particulars: 24 h, mean ± SD, n = 3. As to the method:
(§3) HUVECs were cultured in 96-well plates at a density of 1 × 10^4 cells/cm^2 and treated with Cap (1 μM), NE (0.5 μM), or ACEi peptides (100–200 μM) for 24 h, or incubated with both NE (0.5 μM) and 200 μM ACEi peptides for 24 h. NO and ET-1 contents of HUVECs were determined after 24 h according to the NO and ET-1 assay kits as manufactures' protocol ([54]).

Series [4] relates to HUVECs. Nature of the series: Nitric oxide (NO) production in HUVECs. The series is classed as cell-based, human. The following applies: 24 h, mean ± SD, n = 3. The protocol:
as §3

Series [5] relates to H2O2-damaged HUVECs. Briefly: SOD level in H2O2-damaged HUVECs. Format: cell-based, human. The following applies: then H2O2 400 μM for 24 h, mean ± SD, n = 3. As to the method:
as §1, §2

The test system of series [6] is H2O2-damaged HUVECs. Briefly: GSH-Px level in H2O2-damaged HUVECs. Format: cell-based, human. The following applies: then H2O2 400 μM for 24 h, mean ± SD, n = 3. The protocol:
as §1, §2

Series [7] deals with HUVECs. Briefly: Cytotoxic assay (MTT) on HUVECs. The series is classed as cell-based, human. The following applies: 50–200 μM, 24 h. As to the method: The cytotoxic assay was carried out as per the previous method ([54]). HUVECs were cultured at a density of 1 × 10^4 cells/cm^2 to confluence in DMEM at 37°C in a humidified 5% CO2 atmosphere ([8]). The cytotoxicity of TP1–TP10 on HUVECs was measured using MTT assay ([8]). In short, HUVECs in 96-well plates at a density of 1 × 10^4 cells/cm^2 were separately treated with 20 μL samples at 50 and 200 μM, respectively, and cultured for 24 h. Then, 20 μL MTT solution (5 mg/mL) was put in and incubated for 4 h. In the end, DMSO was joined in each well plate, and the absorbance (A) at 490 nm was determined.
Cell viability(%)= (Asample/Acontrol) × 100.

In another series the target is ACE (Oryctolagus cuniculus, UniProt G1TYT4). Particulars: cited from earlier work.
Series [8] addresses T1, Angiotensin-converting enzyme (ACE) (UniProt P12822).
T1 sequence: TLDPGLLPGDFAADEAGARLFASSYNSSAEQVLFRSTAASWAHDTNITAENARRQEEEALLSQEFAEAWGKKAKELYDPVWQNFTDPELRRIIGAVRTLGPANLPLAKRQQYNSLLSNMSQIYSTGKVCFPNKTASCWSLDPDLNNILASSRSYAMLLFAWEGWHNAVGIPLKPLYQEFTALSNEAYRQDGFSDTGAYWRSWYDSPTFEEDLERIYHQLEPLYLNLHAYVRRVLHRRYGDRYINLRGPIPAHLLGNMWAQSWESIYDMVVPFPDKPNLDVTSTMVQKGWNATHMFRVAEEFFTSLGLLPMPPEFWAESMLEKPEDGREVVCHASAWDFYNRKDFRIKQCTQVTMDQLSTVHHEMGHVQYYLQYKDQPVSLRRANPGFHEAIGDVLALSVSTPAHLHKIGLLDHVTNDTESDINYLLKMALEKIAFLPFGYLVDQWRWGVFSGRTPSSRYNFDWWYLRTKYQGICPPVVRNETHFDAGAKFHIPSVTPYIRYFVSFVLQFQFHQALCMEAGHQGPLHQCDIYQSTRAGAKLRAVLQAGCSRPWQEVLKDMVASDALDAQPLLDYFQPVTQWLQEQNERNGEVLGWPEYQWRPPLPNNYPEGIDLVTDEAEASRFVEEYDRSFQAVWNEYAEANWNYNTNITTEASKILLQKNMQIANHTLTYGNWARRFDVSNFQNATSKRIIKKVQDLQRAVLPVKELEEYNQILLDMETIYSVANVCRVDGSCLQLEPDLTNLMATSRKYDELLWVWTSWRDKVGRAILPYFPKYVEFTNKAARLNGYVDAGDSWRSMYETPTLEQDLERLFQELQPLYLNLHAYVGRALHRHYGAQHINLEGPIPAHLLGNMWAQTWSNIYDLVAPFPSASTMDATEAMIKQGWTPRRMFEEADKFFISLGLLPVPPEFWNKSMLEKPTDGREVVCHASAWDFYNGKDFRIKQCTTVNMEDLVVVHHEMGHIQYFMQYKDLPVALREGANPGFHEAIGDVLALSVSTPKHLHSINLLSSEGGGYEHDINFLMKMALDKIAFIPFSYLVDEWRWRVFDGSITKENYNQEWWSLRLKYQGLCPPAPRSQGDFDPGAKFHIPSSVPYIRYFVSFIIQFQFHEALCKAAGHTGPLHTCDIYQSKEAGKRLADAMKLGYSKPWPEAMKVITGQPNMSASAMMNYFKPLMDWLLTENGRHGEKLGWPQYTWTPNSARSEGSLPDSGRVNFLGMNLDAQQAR

Setting [9] is: NE 0.5 μM together with peptide 200 μM.

ACE, sequence (G1TYT4 1-1284): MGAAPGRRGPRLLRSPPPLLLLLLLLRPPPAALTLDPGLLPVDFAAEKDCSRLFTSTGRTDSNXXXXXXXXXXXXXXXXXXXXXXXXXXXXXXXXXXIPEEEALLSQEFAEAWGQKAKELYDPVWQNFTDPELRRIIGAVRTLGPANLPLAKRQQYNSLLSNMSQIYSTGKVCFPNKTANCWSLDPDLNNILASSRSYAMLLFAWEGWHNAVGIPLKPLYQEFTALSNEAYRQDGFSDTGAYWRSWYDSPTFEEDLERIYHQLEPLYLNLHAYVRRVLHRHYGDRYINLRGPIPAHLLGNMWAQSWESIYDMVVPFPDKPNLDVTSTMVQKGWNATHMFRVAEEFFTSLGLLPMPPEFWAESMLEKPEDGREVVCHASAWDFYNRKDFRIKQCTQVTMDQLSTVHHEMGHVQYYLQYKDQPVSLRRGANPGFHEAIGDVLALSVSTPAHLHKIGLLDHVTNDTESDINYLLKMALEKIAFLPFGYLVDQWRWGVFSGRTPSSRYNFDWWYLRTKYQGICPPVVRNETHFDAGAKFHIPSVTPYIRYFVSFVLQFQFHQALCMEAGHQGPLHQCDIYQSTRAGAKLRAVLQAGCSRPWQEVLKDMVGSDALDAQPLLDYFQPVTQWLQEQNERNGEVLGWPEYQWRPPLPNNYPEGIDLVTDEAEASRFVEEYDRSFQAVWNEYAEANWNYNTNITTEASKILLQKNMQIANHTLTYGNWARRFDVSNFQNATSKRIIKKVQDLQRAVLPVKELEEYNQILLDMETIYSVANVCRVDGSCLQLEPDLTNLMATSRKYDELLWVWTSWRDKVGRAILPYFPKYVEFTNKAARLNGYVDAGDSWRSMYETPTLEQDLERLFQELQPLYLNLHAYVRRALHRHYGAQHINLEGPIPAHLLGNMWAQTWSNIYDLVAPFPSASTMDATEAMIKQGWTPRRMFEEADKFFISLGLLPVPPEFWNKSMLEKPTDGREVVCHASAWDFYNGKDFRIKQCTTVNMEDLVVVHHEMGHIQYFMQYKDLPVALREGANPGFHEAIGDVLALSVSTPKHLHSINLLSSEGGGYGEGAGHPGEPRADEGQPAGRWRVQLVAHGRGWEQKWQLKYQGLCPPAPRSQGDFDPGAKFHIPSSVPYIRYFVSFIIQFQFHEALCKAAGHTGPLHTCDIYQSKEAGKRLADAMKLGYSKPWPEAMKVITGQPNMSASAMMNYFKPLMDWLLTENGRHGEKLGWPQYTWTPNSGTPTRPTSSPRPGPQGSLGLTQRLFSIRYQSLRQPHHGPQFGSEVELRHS

Take `N[C@@H](CCC(=O)N[C@@H](CS)C(=O)NCC(=O)O)C(=O)O` [GSH, glutathione, reference compound]: the MDA level in the series on H2O2-damaged HUVECs [1] (GSH positive control (concentration not given)) is 15.28 ± 0.61 nmol/mg prot. Also, the “cell viability of H2O2-damaged HUVECs” value in the series on H2O2-damaged HUVECs [2] (GSH positive control (concentration not given), then H2O2 400 μM for 24 h, mean ± SD, n = 3) stood at 75.69 ± 3.52%.
With `OO` [H2O2], in the series on H2O2-damaged HUVECs [2] (H2O2 400 μM alone, 24 h (oxidative damage model), mean ± SD, n = 3), the “cell viability of HUVECs (% of the blank group)” value is recorded as 50.48 ± 1.96%.
The molecule `NC[C@H](O)c1ccc(O)c(O)c1` [NE, Norepinephrine, reference compound] returned an ET-1 secretion with HUVECs [3] (NE 0.5 μM alone) of 148.35 ± 3.87 pg/mL. The NO level in the series on HUVECs [4] (NE 0.5 μM alone) came to 22.91 ± 1.26 μmol/gprot.
On to `CC[C@H](C)[C@H](N)C(=O)N[C@@H](CS)C(=O)N[C@@H](Cc1ccc(O)cc1)C(=O)O` [TP6, Ile-Cys-Tyr] (H-Ile-Cys-Tyr-OH), for which the SOD level in the series on H2O2-damaged HUVECs [5] (peptide 100 μM for 8 h) is 168.77 ± 5.32 U/mg prot; in the series on H2O2-damaged HUVECs [5] (peptide 200 μM for 8 h) it was 184.06 ± 7.19 U/mg prot. For the same molecule, the figures for the GSH-Px level in the series on H2O2-damaged HUVECs [6] (peptide 100 μM for 8 h) and in the series on H2O2-damaged HUVECs [6] (peptide 200 μM for 8 h) were 42.69 ± 1.32 U/mg prot and 51.28 ± 3.16 U/mg prot, respectively. The MDA level with H2O2-damaged HUVECs [1] (peptide 200 μM for 8 h) is 17.08 ± 0.96 nmol/mg prot. In addition, the ET-1 level in the series with HUVECs [3] (setting [9]) was 105.18 ± 3.29 pg/mL; in the series on HUVECs [3] (peptide 200 μM), 92.57 ± 2.68 pg/mL. In addition, the NO level in the series on HUVECs [4] (setting [9]) came to 42.21 ± 2.66 μmol/gprot; with HUVECs [4] (peptide 200 μM), 50.63 ± 1.95 μmol/gprot. In the series on H2O2-damaged HUVECs [2] (8 h, 200 μM), the “cell viability of H2O2-damaged HUVECs” value was 69.76 ± 3.06%.
Regarding `CC(C)C[C@H](N)C(=O)N[C@@H](CO)C(=O)N[C@@H](Cc1ccccc1)C(=O)N[C@@H](CCCNC(=N)N)C(=O)O` [TP7, Leu-Ser-Phe-Arg] (H-LSFR-OH), the SOD level came to 141.79 ± 3.96 U/mg prot in the series with H2O2-damaged HUVECs [5] (peptide 100 μM for 8 h) and 158.79 ± 5.93 U/mg prot in the series with H2O2-damaged HUVECs [5] (peptide 200 μM for 8 h). Moreover, the figures for the GSH-Px level in the series on H2O2-damaged HUVECs [6] (peptide 100 μM for 8 h) and in the series on H2O2-damaged HUVECs [6] (peptide 200 μM for 8 h) were 35.61 ± 1.23 U/mg prot and 40.93 ± 2.15 U/mg prot, respectively. Moreover, the MDA level in the series on H2O2-damaged HUVECs [1] (peptide 200 μM for 8 h) came to 20.68 ± 1.06 nmol/mg prot. For the same molecule, the ET-1 level in the series on HUVECs [3] (setting [9]) was determined as 110.36 ± 1.76 pg/mL; with HUVECs [3] (peptide 200 μM) it was 101.49 ± 2.05 pg/mL. Also, the “toxicity to HUVECs (in words)” value in the series with HUVECs [7] is “no significant toxicity”. Moreover, the NO level is 35.18 ± 1.2 μmol/gprot in the series on HUVECs [4] (setting [9]) and 45.91 ± 1.68 μmol/gprot with HUVECs [4] (peptide 200 μM). Also, in the series with H2O2-damaged HUVECs [2] (8 h, 200 μM), the “cell viability of H2O2-damaged HUVECs” value came out at 59.15 ± 2.81%.
`CC[C@H](C)[C@H](N)C(=O)N[C@@H](Cc1ccc(O)cc1)C(=O)N[C@@H](CO)C(=O)N1CCC[C@H]1C(=O)O` [TP10, Ile-Tyr-Ser-Pro] (H-IYSP-OH): the SOD level in the series on H2O2-damaged HUVECs [5] (peptide 100 μM for 8 h) came to 154.35 ± 3.68 U/mg prot; in the series on H2O2-damaged HUVECs [5] (peptide 200 μM for 8 h), 172.93 ± 6.58 U/mg prot. For the same molecule, the GSH-Px level came to 38.91 ± 1.17 U/mg prot with H2O2-damaged HUVECs [6] (peptide 100 μM for 8 h) and 44.69 ± 2.09 U/mg prot with H2O2-damaged HUVECs [6] (peptide 200 μM for 8 h). Moreover, the MDA level in the series with H2O2-damaged HUVECs [1] (peptide 200 μM for 8 h) is 19.11 ± 0.88 nmol/mg prot. The ET-1 level with HUVECs [3] (setting [9]) was determined as 109.12 ± 2.95 pg/mL; in the series with HUVECs [3] (peptide 200 μM), 96.15 ± 1.35 pg/mL. For the same molecule, in the series with HUVECs [7], the “toxicity to HUVECs (in words)” value was “no significant toxicity”. Besides, the NO level was determined as 39.27 ± 1.96 μmol/gprot in the series with HUVECs [4] (setting [9]) and 46.78 ± 2.47 μmol/gprot in the series on HUVECs [4] (peptide 200 μM). Besides, in the series with H2O2-damaged HUVECs [2] (8 h, 200 μM), the “cell viability of H2O2-damaged HUVECs” value is reported as 61.58 ± 3.04%.
For EHPVL, the “IC50 on ACE” value on ACE (ACEi peptide from stone fish) was 1680 µg/mL.
For FRKE, the “IC50 on ACE” value on ACE (ACEi peptides from Antarctic krill) is 6970 µg/mL.
Consider LGPLGHQ, for which, on ACE (ACEi peptide from skate), the “IC50 on ACE” value was 4220 µg/mL.
Take MLVFAV: the “IC50 on ACE” value on ACE (ACEi peptide from Katsuwonus pelamis) is 2360 µg/mL.
TP6, Ile-Cys-Tyr (ICY) (peptide) came in with an ACEi activity (IC50): inhibition of ACE hydrolysis of FAPGG, absorbance at 340 nm, 37°C, pH 8.3 in series [8] of 0.48 mg/mL.
On the same count and under the same terms, as for IYSP [TP10, Ile-Tyr-Ser-Pro (IYSP)], the figure is 0.76 mg/mL; as for LSFR [TP7, Leu-Ser-Phe-Arg (LSFR)], 0.59 mg/mL.
